In patent publication US20200289473A1, “METHODS OF TREATING NEURODEGENERATION” (The J David Gladstone Institutes a testamentary trust …, priority 2017, published 2020):
Entries after “also recorded” stand apart in the source; their conditions may differ.

Experiments:
[1] = system: pro-inflammatory gene expression; assay: real-time PCR of pro-inflammatory genes in spinal cords at the peak of EAE; format: in vivo, mice; details: spinal cord, peak of MOG35-55 EAE; vs saline
Method: To gain insight into the anti-inflammatory mechanism by which acivicin regulates the progression of inflammation after EAE, real-time PCR analysis was used. Real-time PCR analysis of expression of pro-inflammatory genes in the spinal cords of MOG35-55 treated mice was performed at the peak of EAE in the saline-treated and acivicin-treated mice (n=7 saline and n=7 acivicin).

[2] = system: PLP139-151 induced EAE; assay: relapsing-remitting EAE model (PLP139-151), therapeutic treatment, clinical score; format: in vivo; details: PLP139-151 mice; daily i.p. starting at peak EAE; vs saline
Source text: (§1) To further study the ability of acivicin to inhibit microglial activation, acivicin was next studies for its ability to suppress disease progression and ameliorate the disease symptoms in the EAE animal models of multiple sclerosis. Two models of EAE were used: (1) mice immunized with MOG35-55 to induce chronic disease and (2) mice immunized with PLP139-151 to induce relapsing-remitting EAE.
Next, to assess the ability to therapeutic efficacy of acivicin to treat disease symptoms and/or progression in relapsing-remitting (PLP139-151) EAE model, mice were administered either acivicin or saline injections daily by intraperitoneal (i.p.) injection starting at the peak EAE phase of the EAE PLP139-151. (n=6 saline, and n=7 acivicin). Acivicin decreased the clinical severity of EAE during remission phases (FIG. 7).

[3] = system: MOG35-55 induced EAE; assay: chronic EAE model (MOG35-55), prophylactic treatment, clinical score; format: in vivo; details: MOG35-55 mice; daily i.p. starting 0 day after immunization; vs saline
Source text: as §1
First, to examine the ability of acivicin to prevent disease symptoms and/or progression to multiple sclerosis in a chronic EAE model, acivicin or saline were administered prophylactically to mice immunized with MOG35-55 to induce chronic disease. The mice were immunized with MOG35-55 to induce chronic disease. Acivicin or saline was administered daily by intraperitoneal (i.p.) injection, starting 0 day after immunization (n=15 saline, n=14 acivicin).

[4] = system: Cx3cr1+ microglia and Ccr2+ monocytes; assay: microglial accumulation and monocyte infiltration in Ccr2RFP/+Cx3cr1GFP/+ mice with MOG35-55 EAE; format: in vivo; details: prophylactic injection
Source text: CNS-resident innate immune cell microglia and CNS-infiltrating inflammatory monocytes are essential for the inflammatory progression of EAE. Yamasaki, R. et al. J Exp Med 211, 1533-1549 (2014); Ajami, B. et al, Nature neuroscience 14, 1142-1149 (2011). To determine whether blocking the γ-glutamyl transpeptidase activity with acivicin inhibits microglial activation and infiltration of monocytes/macrophages in vivo in the EAE models, Ccr2^RFP/+Cx3cr1^GFP/+ mice in which resident microglia are GFP-positive and inflammatory monocytes are RFP-positive were used. Ryu, J. K. et al. Nat Commun 6, 8164 (2015). EAE was induced with MOG35-55, and mice were prophylactically injected with acivicin.

[5] = system: myelin damage and neuronal injury in EAE; assay: MBP and SMI-32 immunohistochemistry in EAE; format: in vivo; details: after EAE induction; vs saline-treated mice
Source text: To investigate whether acivicin can protect from myelin damage and neurodegeneration in EAE, MBP and SMI-32 immunohistochemistry was used to assess myelin damage and neuronal injury.

[6] = system: fibrin-activated microglia cells; assay: proliferation of fibrin-activated microglia cells; format: cell-based; details: increase in cell count upon activation; dose-dependent (FIG. 3)
Source text: (§2) Throughout assay development, we consistently observed multiple-fold proliferation (increase in cell count) of microglia upon activation. Proliferation of fibrin-activated microglia cells was inhibited by treatment with acivicin. […] We also examined the effect of acivicin on microglia activation by other immunostimulatory agents.

[7] = system: LPS-induced microglia activation; assay: LPS-induced microglia activation assay; format: cell-based; details: LPS stimulus; comparable to fibrin (FIG. 4)
Source text: (§3) To identify inhibitors of microglia activation, an assay as described in U.S. Ser. No. 15/109,163, was used to screen a library of 1907 clinical drugs and bioactive compounds. The criteria for hits were ≥50% inhibition of activation and ≤3% cell death to exclude toxic compounds. This represents a three standard deviation difference from the mean value of negative control activated cells. 128 compounds were selected from the screen that satisfied these criteria for dose response curves. Acivicin, a γ-glutamyl transpeptidase inhibitor, was identified among the compounds and was selected for additional characterization as it was an unexpected target for microglial activation and had not been previously linked with neurological diseases.
as §2

[8] = system: fibrin-induced microglia activation; assay: fibrin-induced microglia activation assay; format: cell-based; details: dose-dependent, fibrin stimulus, read-out: IC50, inhibition of fibrin-induced microglia activation
Source text: as §3, §2

[9] = system: microglia; assay: cell toxicity in the microglia activation assay; format: cell-based; details: up to highest assay concentration of 20 μM
Source text: as §3, §2

## N[C@H](C(=O)O)[C@@H]1CC(Cl)=NO1 [acivicin]
[1]
  EAE-induced transcription of Ccl5: inhibits
  EAE-induced transcription of Cxcl10: inhibits
  EAE-induced transcription of IL-1b: inhibits
  EAE-induced transcription of IL-12p40: inhibits
  EAE-induced transcription of iNOS: inhibits
[2]
  clinical severity of EAE during remission phases: decreased
[3]
  acute phase of EAE (clinical score): completely inhibited
[4]
  accumulation of Cx3cr1+ microglia (% area GFP in spinal cord): significantly decreased
  infiltration of Ccr2+ monocytes (% area RFP): significantly decreased
[5]
  axonal injury (SMI-32 immunohistochemistry): dramatic reduction
  myelin damage (MBP immunohistochemistry): dramatic reduction
[6]
  proliferation of fibrin-activated microglia cells: inhibited
[7]
  inhibition of microglia activation by LPS (potency): comparable low μM potency
[8]
  IC50: 2 µM
[9]
  toxic cell death / cell toxicity: no apparent cell toxicity; also recorded: not evident
